US20100119483A1, “PEPTIDE VIRAL ENTRY INHIBITORS” (Schering Corporation, priority 2004, published 2010)
Where “and” joins values, the source holds several entries; their conditions need not be identical. Equal values may be shown once.

System: HCVpp
Assay: Wash off study, HCVpp entry under conditions A-D at 37° C. or 4° C.
Assay type: cell-based, hepatitis C virus
Settings: for luciferase units: 37° C.; for luciferase units observed in the entry assay: 4° C., listed as V-2b
Experimental: To identify if the peptides of the invention bind to the cells and therefore inhibit entry, anti-CD81 antibody or peptide (SEQ ID NO: 77) was tested at four conditions: • (A) peptide or anti-CD81 antibody was pre-incubated with cells and virus separately, cells were washed and virus together with peptide was added; • (B) peptide or anti-CD81 antibody was pre-incubated with virus only first and then virus together with peptide was added to the cells; • (C) peptide or anti-CD81 antibody was preincubated with cells only and washed off, and then virus was added; and • (D) same as C except that virus was washed off after 1 hour of incubation.
The majority of difference seen before the 4-hour time-point is in line with the model wherein most of the entry events occur during the first four hours (data not shown). As expected, the RLU signal was reduced at earlier time points and lead to higher variation of the assay. […] In anticipating similar phenomena might exist with the peptide, we applied the one hour virus incubation in the following studies. In tables 19-22, condition D was identical to condition C except that virus was removed after 1 hour of incubation. […] Anti-CD81 antibody binds to CD81 expressed on the cells and therefore blocks HCVpp entry.
The data in tables 19 and 20 were generated in assays conducted at 37° C. The date generated in tables 21 and 22 were generated in assays conducted at 4° C. The numbers in each table (19-22) represent the luciferase units observed in the entry assay under each indicated condition.

[1] = peptide 0.0457 ug/ml, condition A
[2] = peptide 0.0457 ug/ml, condition B
[3] = peptide 0.0457 ug/ml, condition C
[4] = peptide 0.1372 ug/ml, condition A
[5] = peptide 0.1372 ug/ml, condition B
[6] = peptide 0.1372 ug/ml, condition C
[7] = peptide 0.4115 ug/ml, condition A
[8] = peptide 0.4115 ug/ml, condition B
[9] = peptide 0.4115 ug/ml, condition C
[10] = peptide 1.2346 ug/ml, condition A
[11] = peptide 1.2346 ug/ml, condition B
[12] = peptide 1.2346 ug/ml, condition C
[13] = peptide 3.7037 ug/ml, condition A
[14] = peptide 3.7037 ug/ml, condition B
[15] = peptide 3.7037 ug/ml, condition C
[16] = peptide 11.1111 ug/ml, condition A
[17] = peptide 11.1111 ug/ml, condition C
[18] = peptide 33.3333 ug/ml, condition A
[19] = peptide 33.3333 ug/ml, condition B
[20] = peptide 33.3333 ug/ml, condition C

With “V-S-F-A-I-K-W-E-Y-V-L-L-L-F-L-L [SEQ ID NO: 77]” the luciferase units (peptide 0.0046 ug/ml (two lines), condition A) was 74772 luciferase units and 76125 luciferase units and 57485 luciferase units and 58523 luciferase units, the luciferase units (peptide 0.0046 ug/ml (two lines), condition B) was 65028 luciferase units and 60343 luciferase units and 57349 luciferase units and 51858 luciferase units and the luciferase units (peptide 0.0046 ug/ml (two lines), condition C) was 40529 luciferase units and 45271 luciferase units and 37116 luciferase units and 32831 luciferase units. For the same substance, the luciferase units [1] was 50460 luciferase units and 53231 luciferase units, the luciferase units [2] was 47929 luciferase units and 53377 luciferase units and the luciferase units [3] was 36956 luciferase units and 46680 luciferase units. The luciferase units (peptide 0.0457 ug/ml, condition D) was 3531 luciferase units and 2785 luciferase units, the luciferase units [4] was 44159 luciferase units and 41959 luciferase units and the luciferase units [5] was 43468 luciferase units and 36136 luciferase units. The luciferase units [6] was 34241 luciferase units and 44163 luciferase units, the luciferase units (peptide 0.1372 ug/ml, condition D) was 2443 luciferase units and 4834 luciferase units and the luciferase units [7] was 28106 luciferase units and 25559 luciferase units. The luciferase units [8] was 26979 luciferase units and 31819 luciferase units, the luciferase units [9] was 40225 luciferase units and 43467 luciferase units and the luciferase units (peptide 0.4115 ug/ml, condition D) was 3257 luciferase units and 2555 luciferase units. The luciferase units [10] was 21301 luciferase units and 21733 luciferase units, the luciferase units [11] was 25204 luciferase units and 14452 luciferase units and the luciferase units [12] was 36450 luciferase units and 40467 luciferase units. The luciferase units [13] was 15025 luciferase units and 10613 luciferase units, the luciferase units [14] was 15213 luciferase units and 12233 luciferase units and the luciferase units [15] was 31857 luciferase units and 32265 luciferase units. For the same substance, the luciferase units (peptide 3.7037 ug/ml, condition D) was 2974 luciferase units and 3707 luciferase units, the luciferase units [16] was 12402 luciferase units and 6768 luciferase units and the luciferase units (peptide 11.1111 ug/ml, condition B) was 10212 luciferase units and 6902 luciferase units. The luciferase units [17] was 28818 luciferase units and 33022 luciferase units, the luciferase units (peptide 11.1111 ug/ml, condition D) was 3302 luciferase units and 3259 luciferase units and the luciferase units [18] was 6467 luciferase units and 6356 luciferase units. The luciferase units [19] was 7146 luciferase units and 4501 luciferase units, the luciferase units [20] was 23383 luciferase units and 19309 luciferase units and the luciferase units (peptide 33.3333 ug/ml, condition D) was 2351 luciferase units and 2058 luciferase units. For the same substance, the luciferase units (peptide 100.0000 ug/ml, condition A (pre-incubated with cells and virus separately, cells washed)) was 9216 luciferase units and 7419 luciferase units, the luciferase units (peptide 100.0000 ug/ml, condition B (pre-incubated with virus only)) was 8074 luciferase units and 4093 luciferase units and the luciferase units (peptide 100.0000 ug/ml, condition C (pre-incubated with cells only, washed off)) was 19088 luciferase units and 14073 luciferase units. For the same substance, the luciferase units (peptide 100.0000 ug/ml, condition D (as C, virus washed off after 1 hour)) was 780 luciferase units and 1531 luciferase units, the “luciferase units observed in the entry assay” value (from here on “luciferase units observed”) (peptide 0.0046 ug/ml, condition A) was 22435 luciferase units and 18765 luciferase units and 17613 luciferase units and 22306 luciferase units and the “luciferase units observed” value (peptide 0.0046 ug/ml, condition B) was 26860 luciferase units and 23215 luciferase units and 23633 luciferase units and 21213 luciferase units. For the same substance, the “luciferase units observed” value (peptide 0.0046 ug/ml, condition C) was 13903 luciferase units and 13795 luciferase units and 14095 luciferase units and 10535 luciferase units, the “luciferase units observed” value [1] was 7498 luciferase units and 7299 luciferase units and the “luciferase units observed” value [2] was 6703 luciferase units and 9954 luciferase units. For the same substance, the “luciferase units observed” value [3] was 16101 luciferase units and 13757 luciferase units, the “luciferase units observed” value [4] was 5745 luciferase units and 7826 luciferase units and the “luciferase units observed” value [5] was 7670 luciferase units and 6880 luciferase units. The “luciferase units observed” value [6] was 9444 luciferase units and 10124 luciferase units, the “luciferase units observed” value [7] was 5517 luciferase units and 5574 luciferase units and the “luciferase units observed” value [8] was 4724 luciferase units and 3648 luciferase units. The “luciferase units observed” value [9] was 9027 luciferase units and 11381 luciferase units, the “luciferase units observed” value [10] was 3584 luciferase units and 5974 luciferase units and the “luciferase units observed” value [11] was 5542 luciferase units and 4382 luciferase units. The “luciferase units observed” value [12] was 6131 luciferase units and 6853 luciferase units, the “luciferase units observed” value [13] was 2824 luciferase units and 3255 luciferase units and the “luciferase units observed” value [14] was 3059 luciferase units and 3424 luciferase units. The “luciferase units observed” value [15] was 9414 luciferase units and 8570 luciferase units, the “luciferase units observed” value [16] was 2833 luciferase units and 2954 luciferase units and the “luciferase units observed” value [17] was 7352 luciferase units and 4725 luciferase units. For the same substance, the “luciferase units observed” value [18] was 1677 luciferase units and 2383 luciferase units, the “luciferase units observed” value [19] was 2900 luciferase units and 1914 luciferase units and the “luciferase units observed” value [20] was 8294 luciferase units and 8104 luciferase units. The “luciferase units observed” value (peptide 100 ug/ml, condition A) was 1924 luciferase units and 1845 luciferase units, the “luciferase units observed” value (peptide 100 ug/ml, condition C) was 5118 luciferase units and 8821 luciferase units and the “inhibition compared to anti-CD81 antibody in the wash-off experiment” value (pre-incubated with cells at 37° C. and 4° C.) was “more inhibition”. For the same substance, the “inhibition at condition C” value (pre-incubated with cells only and washed off, then virus added) was “little inhibition”.
